From US20190070170A1, “METHOD OF S[…]-1” (Macau University of Science and Technology, priority 2017, published 2019) come the findings set out here.

Molecules are shown by their SMILES.

For one test, the system named is p-cPLA2. In words: p-cPLA2 protein expression in IL-1β-stimulated A549 cells (western blotting). In kind it is cell-based. To be noted: IL-1β with SIN or DEX for 48 h. Here is the method: (§1) RAW264.7 and A549 cell lines were obtained from American Type Culture Collection (ATCC, Manassas, Va., USA) and maintained in DMEM (RAW264.7) or 1640 (A549) medium containing 10% FBS (Gibco-BRL, Grand Island, N.Y., USA) and antibiotics at 37° C. in a humidified atmosphere containing 5% CO2. RAW264.7 cells were plated in 6-well plates at a density of 4×10^5 cells and incubated for 24 h, then the cells were pretreated with different concentrations of SIN for 1 h before stimulating with LPS (100 ng/ml). A549 cells were seeded in 6-well plates at a density of 1×10^5 cells and incubated for 24 h, followed by pretreatment with SIN. A549 cells were then stimulated by IL-1β (1 ng/ml).
Whole-cell and nuclear proteins were obtained using RIPA lysis buffer (CST, Boston, Mass., USA) and Nuclear and Cytoplasmic Extraction Reagents kit from Thermo Scientific (Asheville, N.C., USA), respectively. For immunoblotting, proteins from whole-cell, cytoplasm, nuclear, and microsomal fractions were separated on SDS-PAGE, then transferred onto a nitrocellulose membrane from GE Healthcare Life Sciences (Buckinghamshire, UK), and incubated with 5% skimmed milk at room temperature for 1 h. […] The levels of protein expression were measured using Odyssey v3.0 software from Li-COR (Lincoln, Nebr., USA).

In another test the test system is PGE2. As to the kind of experiment: PGE2 production in LPS-stimulated RAW264.7 cells (ELISA). The format is cell-based, mouse. To be noted: SIN 160, 320 or 640 μM or 0.5 μM DEX 1 h, then LPS 100 ng/ml 18 h. As to the method:
as §1
RAW264.7 cells and rat peritoneal macrophages were seeded in a 96-well plate at density of 1.4×10^4 and 1.5×10^5 cells, respectively. Various concentration of SIN was added to the cells for 1 hour before LPS stimulation. After stimulation with LPS for 18 h (RAW264.7 cells) or 24 h (rat peritoneal macrophages), MTT solution was added to each well and incubated for another 4 hours. 100 μl 10% SDS-HCl solution was added to each well for overnight to dissolve the formazan dye. The optical density was measured at 570 nm against a reference wavelength of 650 nm using a microplate UV/VIS spectrophotometer (Tecan, Mannedorf, Switzerland). […]

Another test relates to CEBPβ (COX-2 promoter). As to the kind of experiment: ChIP assay: CEBPβ DNA binding to COX-2 promoter in LPS-stimulated rat peritoneal macrophages. To be noted: 640 μM SIN 1 h, 1 μg/ml LPS 30 min. The format is cell-based. Here is the method: Rat peritoneal macrophages were pretreated with 640 μM SIN (1 h) and stimulated with 1 μg/ml LPS (30 min) before fixation at room temperature for 10 min with 1% formaldehyde. Fixation was terminated by adding glycine (to 0.125 M) with an additional incubation of 5 min, then the cells were washed twice with ice-cold PBS and harvested by scraping and centrifugation (1500 rpm for 10 min at 4° C.). Cell lysis was performed using ChIP kit from abcam (Cambridge, UK) according to the manufacturer's instructions. Briefly, cell pellets were resuspended in 1 ml Buffer B by pipetting up and down several times in a microcentrifuge tube and incubated at room temperature for 10 min. After centrifugation at 5000 rpm, the pellet was collected and resuspended in ice cold Buffer C and incubated on ice for 10 min, followed by centrifugation (5,000 rpm for 10 min at 4° C.). The pellet was mixed with 100 μl Buffer D containing protease inhibitors, incubated on ice for 10 min and sonicated for 30 cycles in a Bioruptor UCD-300 sonicator (power on high, 30 s on, 30 s off per cycle), yielding DNA fragments of 150-200 bps (the size of sonicated chromatin was checked through running 2% agarose gel). Beads were blocked overnight in PBS with 0.5% BSA and then added to the samples. […]

On to `COC1=C[C@@H]2[C@@H]3Cc4ccc(OC)c(O)c4[C@]2(CCN3C)CC1=O` [SIN, sinomenine], for which the p-cPLA2 protein expression result in the test on p-cPLA2 is recorded as “did not suppress”. Also, the PGE2 production entry in the test on PGE2 was “significant inhibition of PGE2 production in a dose dependent manner”. Also, the “DNA binding of CEBPβ to the COX-2 promoter” value in the test on CEBPβ (COX-2 promoter) was “inhibited”.
